We go through ten compounds from article PMC6249039 (Journal of medicinal chemistry, 2018).

One data set deals with influenza. The class given is cell-based.
For data set [1] the following is noted: cited from earlier work.
A further data set deals with HIV IN (Human immunodeficiency virus type 1 group M subtype B, UniProt P04585). It is filed as biochemical. To be noted: 200 μM.
Data set [2] concerns the target human carbonic anhydrase II (hCAII) (Homo sapiens, UniProt P00918). The data set is described as follows: Cross-inhibition screen, human carbonic anhydrase II. The class given is biochemical. As to conditions: 200 μM.
The next data set has as its target T1, HDAC-6 (Homo sapiens, UniProt Q9UBN7).
T1 sequence (Q9UBN7 1-1215): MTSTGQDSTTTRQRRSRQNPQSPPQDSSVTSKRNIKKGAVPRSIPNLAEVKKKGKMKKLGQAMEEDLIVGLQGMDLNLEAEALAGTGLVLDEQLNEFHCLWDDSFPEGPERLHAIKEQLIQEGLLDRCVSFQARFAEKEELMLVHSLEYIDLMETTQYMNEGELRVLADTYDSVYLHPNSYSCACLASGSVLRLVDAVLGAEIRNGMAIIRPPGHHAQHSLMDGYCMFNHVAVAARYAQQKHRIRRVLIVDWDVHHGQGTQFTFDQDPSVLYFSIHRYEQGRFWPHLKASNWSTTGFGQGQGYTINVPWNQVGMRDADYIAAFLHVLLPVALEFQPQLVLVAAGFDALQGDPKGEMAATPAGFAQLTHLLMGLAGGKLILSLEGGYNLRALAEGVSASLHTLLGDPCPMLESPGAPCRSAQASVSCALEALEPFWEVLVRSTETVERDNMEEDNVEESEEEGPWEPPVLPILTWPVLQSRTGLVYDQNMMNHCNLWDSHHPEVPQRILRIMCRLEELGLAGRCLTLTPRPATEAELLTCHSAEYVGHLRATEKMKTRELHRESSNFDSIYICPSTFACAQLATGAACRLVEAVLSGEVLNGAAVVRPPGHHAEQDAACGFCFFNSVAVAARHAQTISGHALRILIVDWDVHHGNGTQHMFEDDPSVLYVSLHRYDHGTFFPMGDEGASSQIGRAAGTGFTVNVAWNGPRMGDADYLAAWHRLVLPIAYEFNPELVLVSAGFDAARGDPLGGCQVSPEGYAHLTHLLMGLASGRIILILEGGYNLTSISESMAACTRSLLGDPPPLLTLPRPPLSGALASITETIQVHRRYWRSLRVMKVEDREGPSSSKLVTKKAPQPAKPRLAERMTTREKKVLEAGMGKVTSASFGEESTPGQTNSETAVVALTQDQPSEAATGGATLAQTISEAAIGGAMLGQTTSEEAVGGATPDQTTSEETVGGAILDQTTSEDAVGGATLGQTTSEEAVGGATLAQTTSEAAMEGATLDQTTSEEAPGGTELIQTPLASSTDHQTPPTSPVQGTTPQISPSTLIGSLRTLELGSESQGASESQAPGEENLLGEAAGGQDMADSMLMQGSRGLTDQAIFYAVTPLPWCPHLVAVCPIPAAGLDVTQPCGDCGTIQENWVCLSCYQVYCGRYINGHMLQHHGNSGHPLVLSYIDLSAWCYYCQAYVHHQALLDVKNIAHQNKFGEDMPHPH
The data set is described as follows: Cross-inhibition screen, HDAC-6. It is filed as biochemical. To be noted: 200 μM.

As to `O=C(O)c1occc(=O)c1O` [Compound 3], in the data set with influenza, the “Antiviral activity in cell-based assays” value is “little antiviral activity”.
In the case of `Cc1cc(C(=O)O)c(O)c(=O)[nH]1` [Compound 18], the “Antiviral activity in cell-based assays” value in the data set on influenza is listed as “little antiviral activity”.
The same measure, in the same setting: the result for `O=c1c(O)ccccc1O` [Compound 32, α-hydroxytropolone] reads “little antiviral activity”.
`Cc1cc(=O)c(O)c(C(=O)O)[nH]1` [Compound 17, 3-Hydroxy-6-methyl-4-oxo-1,4-dihydropyridine-2-carboxylic acid]: the “Antiviral activity in cell-based assays” value in the data set on influenza was “little antiviral activity”.
Consider `O=c1cc[nH]c(-c2nnn[nH]2)c1O` [Compound 27], for which the “Antiviral activity in cell-based assays” value in the data set on influenza was “little antiviral activity”.
For `O=C(O)c1cccc(O)c1O` [Compound 7], in data set [1] (phenolic oxygen), the “pKa reported, first value” is given as 10.30 and the “pKa reported, second value” was 13.48.
For the compound `Cc1cc(O)c(=O)c(O)cc1C(=O)O` [Compound 33, 5-Methyl-2,7-dihydroxytropolone-4-carboxylic acid], the “Antiviral activity in cell-based assays” value with influenza is on record as “little antiviral activity”.
Consider `O=C(O)c1cccc(=O)n1O` [Compound 5], for which, in data set [1] (N-hydroxy donor oxygen), the pKa reported is recorded as 7.51.
Consider `Cc1cc(=S)c(O)c(C(=O)O)o1` [Compound 22], for which, in the data set with influenza, the “Antiviral activity in cell-based assays” value is recorded as “little antiviral activity”.
On to `Cc1cc(=O)c(O)c(C(=O)O)o1` [Compound 1, 3-Hydroxy-6-methyl-4-oxo-4H-pyran-2-carboxylic acid], for which the “Percent inhibition, HIV IN 3'-processing activity” value on HIV IN is “no inhibition”. Besides, the “Percent inhibition, hCAII” value in data set [2] was “no inhibition”. Also, the “Percent inhibition, HDAC-6” value at HDAC-6 was “no inhibition”. Moreover, the “Antiviral activity in cell-based assays” value in the data set with influenza is listed as “little antiviral activity”.
